Source: paper PMC10482691, “LTP induction by structural rather than enzymatic functions of CaMKII” (Nature, 2023)
Where “and” joins values, the source holds several entries; their conditions need not be identical. Equal values may be shown once.

How the values were obtained:
CaMKIIδ(h) = CaMKIIδ(h) (Homo sapiens, UniProt Q13557); assay: Kinase selectivity panel (residual activity at 1 μM); assay type: biochemical; conditions: inhibitor at 1 μM; read-out: residual kinase activity in % of maximal activity
PKCα(h) = PKCα(h) (Homo sapiens, UniProt P17252); assay: as above; assay type: biochemical; conditions: inhibitor at 1 μM; read-out: residual kinase activity in % of maximal activity
PAK2(h) = PAK2(h) (Homo sapiens, UniProt Q13177); assay: as above; assay type: biochemical; conditions: inhibitor at 1 μM; read-out: residual kinase activity in % of maximal activity
PDGFRβ(h) = PDGFRβ(h) (Homo sapiens, UniProt P09619); assay: as above; assay type: biochemical; conditions: inhibitor at 1 μM; read-out: residual kinase activity in % of maximal activity
Flt3(h) = Flt3(h) (Homo sapiens, UniProt P36888); assay: as above; assay type: biochemical; conditions: inhibitor at 1 μM; read-out: residual kinase activity in % of maximal activity
CaMKI(h) = CaMKI(h) (Homo sapiens, UniProt Q14012); assay: as above; assay type: biochemical; conditions: inhibitor at 1 μM; read-out: residual kinase activity in % of maximal activity
cKit(h) = cKit(h) (Homo sapiens, UniProt P10721); assay: as above; assay type: biochemical; conditions: inhibitor at 1 μM; read-out: residual kinase activity in % of maximal activity
Ret(h) = Ret(h) (Homo sapiens, UniProt P07949); assay: as above; assay type: biochemical; conditions: inhibitor at 1 μM; read-out: residual kinase activity in % of maximal activity
PKG1α(h) = PKG1α(h) (Homo sapiens, UniProt Q13976); assay: as above; assay type: biochemical; conditions: inhibitor at 1 μM; read-out: residual kinase activity in % of maximal activity
JNK2α2(h) = JNK2α2(h) (Homo sapiens, UniProt P45984); assay: as above; assay type: biochemical; conditions: inhibitor at 1 μM
SGK(h) = SGK(h) (Homo sapiens, UniProt O00141); assay: as above; assay type: biochemical; conditions: inhibitor at 1 μM; read-out: residual kinase activity in % of maximal activity
KDR(h) = KDR(h) (Homo sapiens, UniProt P35968); assay: as above; assay type: biochemical; conditions: inhibitor at 1 μM; read-out: residual kinase activity in % of maximal activity
CaMKIIγ(h) = CaMKIIγ(h) (Homo sapiens, UniProt Q13555); assay: as above; assay type: biochemical; conditions: inhibitor at 1 μM; read-out: residual kinase activity in % of maximal activity
JAK2(h) = JAK2(h) (Homo sapiens, UniProt O60674); assay: as above; assay type: biochemical; conditions: inhibitor at 1 μM
IGF-1R(h) = IGF-1R(h) (Homo sapiens, UniProt P08069); assay: as above; assay type: biochemical; conditions: inhibitor at 1 μM; read-out: residual kinase activity in % of maximal activity
CaMKIIβ(h) = CaMKIIβ(h) (Homo sapiens, UniProt Q13554); assay: as above; assay type: biochemical; conditions: inhibitor at 1 μM; read-out: residual kinase activity in % of maximal activity
CDK2/cyclinE(h) = CDK2/cyclinE(h) (Homo sapiens, UniProt P24941); assay: as above; assay type: biochemical; conditions: inhibitor at 1 μM
[1] = biological target: PI3 Kinase (p110a/p85a)(h) (Homo sapiens, UniProt P42336); assay: as above; assay type: biochemical; conditions: inhibitor at 1 μM; read-out: residual kinase activity in % of maximal activity
CaMKIV(h) = CaMKIV(h) (Homo sapiens, UniProt Q16566); assay: as above; assay type: biochemical; conditions: inhibitor at 1 μM; read-out: residual kinase activity in % of maximal activity
PKCδ(h) = PKCδ(h) (Homo sapiens, UniProt Q05655); assay: as above; assay type: biochemical; conditions: inhibitor at 1 μM; read-out: residual kinase activity in % of maximal activity
FAK(h) = FAK(h) (Homo sapiens, UniProt Q05397); assay: as above; assay type: biochemical; conditions: inhibitor at 1 μM; read-out: residual kinase activity in % of maximal activity
mTOR(h) = mTOR(h) (Homo sapiens, UniProt P42345); assay: as above; assay type: biochemical; conditions: inhibitor at 1 μM; read-out: residual kinase activity in % of maximal activity
[2] = biological target: purified CaMKIIα binding to GST–GluN2B-c WT (Homo sapiens, UniProt Q9UQM7); assay: CaMKII binding to immobilized GST–GluN2B-c in vitro
Description: CaMKII–GluN2B binding assays were done as described[9],[13],[25]. Briefly, GST–GluN2B-c tail (GST–2BC) was immobilized on anti-GST antibody-coated microtiter plates (Thermo Scientific), blocked for 30 min with 5% BSA and then overlaid with […] CaMKII (subunit concentration) in PIPES-buffered saline (pH 7.2) containing 2 mM Ca^2+, 1 μM CaM, 1 mM Mg^2+, 0.1% BSA and 0.1% Tween-20 for 20 min at room temperature. […] After extensive washes in buffer containing 1 mM EGTA, GST–2BC and bound CaMKII were eluted for 10 min in SDS loading buffer at 95 °C. Bound CaMKII was measured via immunoblot.

PDK1(h) = PDK1(h) (Homo sapiens, UniProt O15530); assay: Kinase selectivity panel (residual activity at 1 μM); assay type: biochemical; conditions: inhibitor at 1 μM; read-out: residual kinase activity in % of maximal activity
JAK3(h) = JAK3(h) (Homo sapiens, UniProt P52333); assay: as above; assay type: biochemical; conditions: inhibitor at 1 μM; read-out: residual kinase activity in % of maximal activity
Pim-3(h) = Pim-3(h) (Homo sapiens, UniProt Q86V86); assay: as above; assay type: biochemical; conditions: inhibitor at 1 μM; read-out: residual kinase activity in % of maximal activity
PKBγ(h) = PKBγ(h) (Homo sapiens, UniProt Q9Y243); assay: as above; assay type: biochemical; conditions: inhibitor at 1 μM; read-out: residual kinase activity in % of maximal activity
PKG1β(h) = PKG1β(h) (Homo sapiens, UniProt Q13976); assay: as above; assay type: biochemical; conditions: inhibitor at 1 μM; read-out: residual kinase activity in % of maximal activity
FGFR1(h) = FGFR1(h) (Homo sapiens, UniProt P11362); assay: as above; assay type: biochemical; conditions: inhibitor at 1 μM; read-out: residual kinase activity in % of maximal activity
MAPK1(h) = MAPK1(h) (Homo sapiens, UniProt P27361); assay: as above; assay type: biochemical; conditions: inhibitor at 1 μM; read-out: residual kinase activity in % of maximal activity
SAPK2a(h) = SAPK2a(h) (Homo sapiens, UniProt Q16539); assay: as above; assay type: biochemical; conditions: inhibitor at 1 μM
GSK3α(h) = GSK3α(h) (Homo sapiens, UniProt P49840); assay: as above; assay type: biochemical; conditions: inhibitor at 1 μM; read-out: residual kinase activity in % of maximal activity
[3] = test system: GFP–CaMKII in rat hippocampal neurons; assay: cLTP-induced CaMKII synaptic enrichment in dissociated hippocampal cultures (GFP–CaMKII WT); assay type: cell-based; conditions: AS105
CDK5/p35(h) = CDK5/p35(h) (Homo sapiens, UniProt Q00535); assay: Kinase selectivity panel (residual activity at 1 μM); assay type: biochemical; conditions: inhibitor at 1 μM; read-out: residual kinase activity in % of maximal activity
p70S6K(h) = p70S6K(h) (Homo sapiens, UniProt P23443); assay: as above; assay type: biochemical; conditions: inhibitor at 1 μM; read-out: residual kinase activity in % of maximal activity
AMPKα1(h) = AMPKα1(h) (Homo sapiens, UniProt Q13131); assay: as above; assay type: biochemical; conditions: inhibitor at 1 μM; read-out: residual kinase activity in % of maximal activity
ROCK-II(h) = ROCK-II(h) (Homo sapiens, UniProt O75116); assay: as above; assay type: biochemical; conditions: inhibitor at 1 μM; read-out: residual kinase activity in % of maximal activity
MAPK2(h) = MAPK2(h) (Homo sapiens, UniProt P28482); assay: as above; assay type: biochemical; conditions: inhibitor at 1 μM; read-out: residual kinase activity in % of maximal activity
Arg(h) = Arg(h) (Homo sapiens, UniProt P42684); assay: as above; assay type: biochemical; conditions: inhibitor at 1 μM; read-out: residual kinase activity in % of maximal activity
GSK3β(h) = GSK3β(h) (Homo sapiens, UniProt P49841); assay: as above; assay type: biochemical; conditions: inhibitor at 1 μM; read-out: residual kinase activity in % of maximal activity
Pim-1(h) = Pim-1(h) (Homo sapiens, UniProt P11309); assay: as above; assay type: biochemical; conditions: inhibitor at 1 μM; read-out: residual kinase activity in % of maximal activity
MEK1(h) = MEK1(h) (Homo sapiens, UniProt Q02750); assay: as above; assay type: biochemical; conditions: inhibitor at 1 μM; read-out: residual kinase activity in % of maximal activity
Aurora-C(h) = Aurora-C(h) (Homo sapiens, UniProt Q9UQB9); assay: as above; assay type: biochemical; conditions: inhibitor at 1 μM; read-out: residual kinase activity in % of maximal activity

PDGFRβ(h), sequence (P09619 33-1106): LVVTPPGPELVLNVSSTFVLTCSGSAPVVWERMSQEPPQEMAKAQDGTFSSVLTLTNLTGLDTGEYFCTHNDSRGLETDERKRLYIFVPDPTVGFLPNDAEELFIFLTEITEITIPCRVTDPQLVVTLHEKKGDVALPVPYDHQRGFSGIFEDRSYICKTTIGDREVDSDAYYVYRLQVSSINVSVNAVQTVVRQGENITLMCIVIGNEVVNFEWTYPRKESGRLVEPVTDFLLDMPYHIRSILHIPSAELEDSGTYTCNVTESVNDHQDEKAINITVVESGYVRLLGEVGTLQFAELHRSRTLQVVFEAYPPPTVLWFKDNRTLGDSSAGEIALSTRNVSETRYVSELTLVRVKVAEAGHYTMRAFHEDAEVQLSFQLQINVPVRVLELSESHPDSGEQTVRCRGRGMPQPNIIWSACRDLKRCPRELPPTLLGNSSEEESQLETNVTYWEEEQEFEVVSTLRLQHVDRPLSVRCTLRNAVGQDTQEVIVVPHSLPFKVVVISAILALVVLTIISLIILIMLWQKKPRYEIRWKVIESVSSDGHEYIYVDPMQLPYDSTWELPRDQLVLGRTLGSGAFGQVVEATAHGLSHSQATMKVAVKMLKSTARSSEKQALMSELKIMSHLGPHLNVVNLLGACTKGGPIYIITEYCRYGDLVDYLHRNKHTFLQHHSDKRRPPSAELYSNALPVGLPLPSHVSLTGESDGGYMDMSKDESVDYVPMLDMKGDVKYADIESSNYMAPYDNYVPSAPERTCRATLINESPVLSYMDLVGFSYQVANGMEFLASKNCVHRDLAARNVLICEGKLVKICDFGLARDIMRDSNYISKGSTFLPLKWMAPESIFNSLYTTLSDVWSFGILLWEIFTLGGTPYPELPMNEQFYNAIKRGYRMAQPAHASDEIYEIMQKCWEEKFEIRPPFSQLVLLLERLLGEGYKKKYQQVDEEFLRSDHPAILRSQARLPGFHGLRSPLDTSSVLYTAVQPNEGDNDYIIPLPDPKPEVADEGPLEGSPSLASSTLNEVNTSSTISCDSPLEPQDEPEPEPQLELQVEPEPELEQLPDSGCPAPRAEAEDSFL
p70S6K(h), sequence (P23443 whole entry): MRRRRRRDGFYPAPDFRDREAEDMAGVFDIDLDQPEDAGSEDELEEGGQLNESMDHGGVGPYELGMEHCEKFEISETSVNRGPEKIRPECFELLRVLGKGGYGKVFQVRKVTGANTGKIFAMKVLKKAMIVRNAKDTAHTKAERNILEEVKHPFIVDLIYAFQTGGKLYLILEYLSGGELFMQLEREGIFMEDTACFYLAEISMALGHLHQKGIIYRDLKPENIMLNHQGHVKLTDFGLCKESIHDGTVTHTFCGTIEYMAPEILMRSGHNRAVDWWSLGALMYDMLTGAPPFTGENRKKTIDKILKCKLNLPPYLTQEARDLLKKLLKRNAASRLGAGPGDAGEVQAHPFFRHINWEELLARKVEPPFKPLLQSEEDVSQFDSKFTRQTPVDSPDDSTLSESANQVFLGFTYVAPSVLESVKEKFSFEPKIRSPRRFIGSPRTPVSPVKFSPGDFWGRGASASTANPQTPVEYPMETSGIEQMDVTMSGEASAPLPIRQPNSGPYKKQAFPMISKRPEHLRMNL
JNK2α2(h), sequence (P45984 whole entry): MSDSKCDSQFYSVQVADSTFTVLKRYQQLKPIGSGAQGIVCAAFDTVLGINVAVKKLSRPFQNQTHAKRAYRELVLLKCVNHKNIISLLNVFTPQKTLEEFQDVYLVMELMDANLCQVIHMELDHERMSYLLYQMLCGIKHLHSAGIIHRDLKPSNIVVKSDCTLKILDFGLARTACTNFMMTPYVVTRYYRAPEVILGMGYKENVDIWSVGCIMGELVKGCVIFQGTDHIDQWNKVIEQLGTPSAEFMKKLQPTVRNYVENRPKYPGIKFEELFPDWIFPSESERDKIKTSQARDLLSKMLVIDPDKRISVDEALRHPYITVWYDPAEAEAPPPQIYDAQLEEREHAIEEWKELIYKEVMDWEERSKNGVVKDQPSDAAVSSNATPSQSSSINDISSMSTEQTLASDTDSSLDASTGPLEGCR
GSK3β(h), sequence (P49841 whole entry): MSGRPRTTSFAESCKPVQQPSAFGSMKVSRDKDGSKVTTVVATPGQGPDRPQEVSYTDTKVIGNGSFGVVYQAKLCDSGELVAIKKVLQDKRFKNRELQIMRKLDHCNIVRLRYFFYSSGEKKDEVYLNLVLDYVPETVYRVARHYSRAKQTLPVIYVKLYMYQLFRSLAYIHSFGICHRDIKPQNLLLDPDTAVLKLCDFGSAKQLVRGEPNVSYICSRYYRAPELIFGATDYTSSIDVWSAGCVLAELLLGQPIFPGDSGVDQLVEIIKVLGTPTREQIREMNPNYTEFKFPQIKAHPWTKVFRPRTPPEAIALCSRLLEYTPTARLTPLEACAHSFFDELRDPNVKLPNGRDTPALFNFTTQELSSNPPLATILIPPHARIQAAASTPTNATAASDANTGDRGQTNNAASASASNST
IGF-1R(h), sequence (P08069 31-1367): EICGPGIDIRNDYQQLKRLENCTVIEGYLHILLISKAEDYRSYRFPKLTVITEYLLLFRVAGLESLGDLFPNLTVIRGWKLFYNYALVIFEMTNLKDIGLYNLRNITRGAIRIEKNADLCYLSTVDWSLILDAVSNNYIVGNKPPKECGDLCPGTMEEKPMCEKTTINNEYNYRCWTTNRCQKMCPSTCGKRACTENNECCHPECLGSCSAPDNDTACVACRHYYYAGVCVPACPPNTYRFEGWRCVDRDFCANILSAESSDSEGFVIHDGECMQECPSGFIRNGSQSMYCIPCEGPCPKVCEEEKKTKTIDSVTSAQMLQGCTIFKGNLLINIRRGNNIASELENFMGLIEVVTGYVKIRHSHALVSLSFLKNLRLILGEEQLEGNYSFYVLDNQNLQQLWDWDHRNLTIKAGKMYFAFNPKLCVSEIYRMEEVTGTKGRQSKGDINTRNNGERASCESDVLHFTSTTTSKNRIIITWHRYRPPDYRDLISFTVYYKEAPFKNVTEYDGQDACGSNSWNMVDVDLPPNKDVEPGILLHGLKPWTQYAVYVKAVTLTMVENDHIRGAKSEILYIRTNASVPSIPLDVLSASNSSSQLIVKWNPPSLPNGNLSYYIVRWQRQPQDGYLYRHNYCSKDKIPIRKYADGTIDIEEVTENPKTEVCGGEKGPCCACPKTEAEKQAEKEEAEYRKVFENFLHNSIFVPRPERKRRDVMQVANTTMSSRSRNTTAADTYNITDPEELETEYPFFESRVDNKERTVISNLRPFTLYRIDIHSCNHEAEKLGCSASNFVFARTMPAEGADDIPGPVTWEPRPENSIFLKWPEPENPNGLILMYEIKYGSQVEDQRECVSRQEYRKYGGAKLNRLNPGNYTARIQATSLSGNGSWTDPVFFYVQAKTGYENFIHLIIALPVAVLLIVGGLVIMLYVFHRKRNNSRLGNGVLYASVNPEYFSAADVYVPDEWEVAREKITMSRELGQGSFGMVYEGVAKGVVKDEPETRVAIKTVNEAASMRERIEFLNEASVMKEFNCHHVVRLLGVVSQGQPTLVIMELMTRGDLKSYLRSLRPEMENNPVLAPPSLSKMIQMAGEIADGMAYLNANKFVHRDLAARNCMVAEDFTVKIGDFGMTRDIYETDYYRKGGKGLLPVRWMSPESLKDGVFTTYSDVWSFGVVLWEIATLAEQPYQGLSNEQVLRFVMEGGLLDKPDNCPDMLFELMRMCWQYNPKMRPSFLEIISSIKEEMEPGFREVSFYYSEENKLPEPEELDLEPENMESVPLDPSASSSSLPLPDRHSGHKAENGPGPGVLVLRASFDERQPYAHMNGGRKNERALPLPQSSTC
CaMKIIδ(h), sequence (Q13557 whole entry): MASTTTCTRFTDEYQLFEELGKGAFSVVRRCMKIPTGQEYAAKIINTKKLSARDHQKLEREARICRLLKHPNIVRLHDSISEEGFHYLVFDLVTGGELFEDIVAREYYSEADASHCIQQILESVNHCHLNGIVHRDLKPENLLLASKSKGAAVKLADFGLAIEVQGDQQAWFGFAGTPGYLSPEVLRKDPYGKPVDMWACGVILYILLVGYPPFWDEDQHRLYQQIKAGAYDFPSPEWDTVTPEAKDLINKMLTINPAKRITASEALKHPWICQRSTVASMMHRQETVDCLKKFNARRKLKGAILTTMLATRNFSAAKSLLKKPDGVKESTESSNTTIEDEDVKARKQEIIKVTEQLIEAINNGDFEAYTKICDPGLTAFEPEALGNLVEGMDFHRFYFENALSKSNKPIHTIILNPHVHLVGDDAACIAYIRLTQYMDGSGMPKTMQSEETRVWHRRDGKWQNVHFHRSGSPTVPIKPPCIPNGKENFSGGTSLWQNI
CDK5/p35(h), sequence (Q00535 whole entry): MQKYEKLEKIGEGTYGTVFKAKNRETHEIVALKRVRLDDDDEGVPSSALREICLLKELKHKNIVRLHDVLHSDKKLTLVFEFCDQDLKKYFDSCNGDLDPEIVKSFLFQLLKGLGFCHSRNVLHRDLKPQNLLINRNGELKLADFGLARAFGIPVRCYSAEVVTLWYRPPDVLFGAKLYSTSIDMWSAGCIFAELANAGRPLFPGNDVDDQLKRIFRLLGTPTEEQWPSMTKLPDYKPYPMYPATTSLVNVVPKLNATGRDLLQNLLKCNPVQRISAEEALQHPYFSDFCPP
CDK5/p35(h), sequence (Q15078 whole entry partner): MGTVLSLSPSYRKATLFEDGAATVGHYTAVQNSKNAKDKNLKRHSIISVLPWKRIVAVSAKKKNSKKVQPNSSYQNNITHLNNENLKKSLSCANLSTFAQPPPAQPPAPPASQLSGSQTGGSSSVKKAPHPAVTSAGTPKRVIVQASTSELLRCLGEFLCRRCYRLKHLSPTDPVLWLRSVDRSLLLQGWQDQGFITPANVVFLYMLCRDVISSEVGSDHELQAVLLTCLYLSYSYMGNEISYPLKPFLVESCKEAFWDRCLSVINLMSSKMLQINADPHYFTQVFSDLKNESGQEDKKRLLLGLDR

In the case of `NCCNc1cccc(-c2ccnc(Nc3cccc(Cl)c3)n2)c1` [AS105], the remaining activity at 1 µM (CaMKIIδ(h)) was 2%, the remaining activity at 1 µM (PKCα(h)) was 51% and the remaining activity at 1 µM (PAK2(h)) was 104%. For the same compound, the remaining activity at 1 µM (PDGFRβ(h)) was 80%, the remaining activity at 1 µM (Flt3(h)) was 2% and the remaining activity at 1 µM (CaMKI(h)) was 83%. For the same compound, the remaining activity at 1 µM (cKit(h)) was 91%, the remaining activity at 1 µM (Ret(h)) was 55% and the remaining activity at 1 µM (PKG1α(h)) was 61%. The “residual kinase activity in % of maximal activity” value (shortened to “residual kinase activity in %”) (JNK2α2(h)) was 79%, the remaining activity at 1 µM (SGK(h)) was 97% and the remaining activity at 1 µM (KDR(h)) was 28%. The remaining activity at 1 µM (CaMKIIγ(h)) was 2%, the “residual kinase activity in %” value (JAK2(h)) was 134% and the remaining activity at 1 µM (IGF-1R(h)) was 121%. For the same compound, the remaining activity at 1 µM (CaMKIIβ(h)) was 6%, the “residual kinase activity in %” value (CDK2/cyclinE(h)) was 2% and the remaining activity at 1 µM [1] was 96%. It also gave a remaining activity at 1 µM (CaMKIV(h)) of 101%, a remaining activity at 1 µM (PKCδ(h)) of 73% and a remaining activity at 1 µM (FAK(h)) of 75%. The remaining activity at 1 µM (mTOR(h)) was 102%, the “effect on GluN2B binding” value ([2]; AS105) was “without inhibiting” and the “bound CaMKIIα (immunoblot, relative)” value ([2]; Ca2+/CaM, 10 μM AS105, no nucleotide) was 2.79 and 2.715 and 1.563. The remaining activity at 1 µM (PDK1(h)) was 109%, the remaining activity at 1 µM (JAK3(h)) was 89% and the remaining activity at 1 µM (Pim-3(h)) was 109%. It also gave a remaining activity at 1 µM (PKBγ(h)) of 76%, a remaining activity at 1 µM (PKG1β(h)) of 68% and a remaining activity at 1 µM (FGFR1(h)) of 91%. For the same compound, the remaining activity at 1 µM (MAPK1(h)) was 105%, the “residual kinase activity in %” value (SAPK2a(h)) was 99% and the remaining activity at 1 µM (GSK3α(h)) was 6%. The “effect on stimulation-induced movement to excitatory synapses” value [3] was “without inhibiting”, the remaining activity at 1 µM (CDK5/p35(h)) was 1% and the remaining activity at 1 µM (p70S6K(h)) was 77%. It also gave a remaining activity at 1 µM (AMPKα1(h)) of 38%, a remaining activity at 1 µM (ROCK-II(h)) of 43% and a remaining activity at 1 µM (MAPK2(h)) of 106%. The remaining activity at 1 µM (Arg(h)) was 87%, the remaining activity at 1 µM (GSK3β(h)) was 11% and the remaining activity at 1 µM (Pim-1(h)) was 69%. It also gave a remaining activity at 1 µM (MEK1(h)) of 111% and a remaining activity at 1 µM (Aurora-C(h)) of 57%.
